Key:
Test in all cases: MTT tumor cell growth assay
Assay type in all cases: cell-based
[1] = test system: HCT-15 (colon cancer); settings: HCT-15 cells, lansoprazole 1-100 μM, 48 hours
[2] = test system: HL60 (leukemia); settings: HL60 cells, lansoprazole 1-100 μM, 48 hours
[3] = test system: H322M; settings: H322M cells, lansoprazole 1-100 μM, 48 hours
[4] = test system: H9 (lymphoma); settings: H9 cells, lansoprazole 1-100 μM, 48 hours
[5] = test system: UACC257 (melanoma); settings: UACC257 cells, lansoprazole 1-100 μM, 48 hours
[6] = test system: IGROV 1 (ovarian cancer); settings: IGROV 1 cells, lansoprazole 1-100 μM, 48 hours
[7] = test system: HUT102 (lymphoma); settings: HUT102 cells, lansoprazole 1-100 μM, 48 hours
[8] = test system: RXF393 (kidney cancer); settings: RXF393 cells, lansoprazole 1-100 μM, 48 hours
[9] = test system: MDA-MB-231; settings: MDA-MB-231 cells, lansoprazole 1-100 μM, 48 hours
[10] = test system: MOLT3 (leukemia); settings: MOLT3 cells, lansoprazole 1-100 μM, 48 hours
[11] = test system: EKVX (lung cancer); settings: EKVX cells, lansoprazole 1-100 μM, 48 hours
[12] = test system: HT29 (colon cancer); settings: HT29 cells, lansoprazole 1-100 μM, 48 hours
[13] = test system: MV-4-11 (leukemia); settings: MV-4-11 cells, lansoprazole 1-100 μM, 48 hours
[14] = test system: A3 (colon cancer); settings: A3 cells, lansoprazole 1-100 μM, 48 hours
[15] = test system: ST486 (lymphoma); settings: ST486 cells, lansoprazole 1-100 μM, 48 hours

Measured: tumor cell growth reduction

Cc1c(OCC(F)(F)F)ccnc1C[S+]([O-])c1nc2ccccc2[nH]1 (stereo not drawn) [lansoprazole]
significant tumor cell growth reduction: [1] | [2] | [3] | [4] | [5] | [6] | [7] | [8] | [9] | [10] | [11] | [12] | [13] | [14] | [15]
